# Measured values reported in patent US12448366B2, “Solid forms of pralsetinib” (Rigel Pharmaceuticals, Inc., priority 2020, dated 2025).
# “Also recorded” adds a separate entry of the source.
# What was measured:
# Format in all cases: physicochemical
# [1] = Drying of free base solid forms (XRPD); details: 50° C., (under vacuum where stated)
# [2] = Dynamic vapor sorption (DVS); details: for XRPD / form stability after DVS humidity cycling: XRPD before and after DVS
# [3] = Antisolvent crystallization (Example 2D), XRPD; details: for XRPD results of direct antisolvent experiments: direct addition; for XRPD results of reverse antisolvent experiments: reverse addition
# Description: Antisolvent crystallization was done in various solvent systems. First, about 30 mg solid free base of Compound (I) characterized by XRPD Pattern C (solid form C) was dissolved in solvent. Then antisolvent crystallization was done either using the direct or reverse addition method. For direct addition, antisolvent was added dropwise to the solution until a slurry was formed. For reverse addition, solution was added all at once to the antisolvent. The volume of antisolvent used was 4 times the volume of solvent required to dissolve the solid. For example, if 0.15 mL solvent was required to dissolve the solid then the solution was added at once to […] antisolvent. Once solids were formed, the slurries were filtered and solids were recovered for XRPD analysis.
# [4] = Thermal treatment in DSC followed by XRPD (Example 2G); details: 150° C.
# Description: Select solids were used for thermal treatment in DSC. Solids were heated to specified temperature and then cooled back to room temperature for analysis by XRPD.
# [5] = Evaporative crystallization (Example 2B), XRPD; details: evaporative crystallization at 50° C., to be confirmed by other analytical methods
# Description: Supernatant from some slurries was recovered for evaporative crystallization. The solutions were evaporated to dryness at 50° C. in atmospheric pressure and then placed at 50° C. under vacuum for 1.5 hours. […] It is possible that these solids were solvates with structures that collapsed to amorphous solids upon drying. Where two experiment numbers are indicated, evaporation was at different concentration.
# [6] = Humidity exposure, 75% relative humidity at 40° C. for one week, XRPD; details: one week / 7 days, XRPD
# [7] = Competitive slurry experiments between free base solid forms
# [8] = Short term slurries (Example 2A), XRPD; details: short term slurry, starting solids Pattern C
# Description: Short term slurries were carried out at two temperature in 15 solvents during the initial screening. Starting solids were Pattern C. Most solids were Pattern C after slurrying. Solids converted to Pattern A in EtOH, IPA, acetone, and acetonitrile at both temperatures.
# The upper phase was sticky and when filtered yielded a low amount of a solid form characterized by XRPD Pattern H.
# [9] = Cooling crystallization (Example 2C), XRPD; details: for XRPD Pattern (fast cool): crash cooling from 50° C. to 0° C.; for XRPD Pattern (slow cool): from 50° C. at 5° C. per hour
# Description: Cooling crystallization was done in a range of solvent systems. Two cooling regimes were used: cooling from 50° C. at 5° C. per hour, and crash cooling from 50° C. to 0° C. In all experiments, solids were completely dissolved before cooling. […] Cooling in THF gave two low crystallinity solids, Solid form N (fast cooling), and solid form I (slow cooling).
# [10] = solvent DMAc, antisolvent cyclohexane
# [11] = solvent DMAc, antisolvent water
# [12] = cooling crystallization, ACN water (8:2 vol)
# [13] = cooling crystallization, DMAc:ACN (2:8 vol)
# [14] = cooling crystallization, DMAc:IPA (2:8 vol)
# [15] = cooling crystallization, DMSO:ACN (2:8 vol)
# [16] = cooling crystallization, DMSO:IPA (2:8 vol)
# [17] = cooling crystallization, MeOH chloroform (1.88:1 vol), wet solid before drying
compound,measurement,setting,value
"CO[C@]1(C(=O)N[C@@H](C)c2ccc(-n3cc(F)cn3)nc2)CC[C@H](c2nc(C)cc(Nc3cc(C)[nH]n3)n2)CC1 [Solid Form C, pralsetinib]",behaviour upon drying at 50° C.,[1],"converted to a dehydrate, Solid Form B"
same,behaviour upon drying at 50° C.,[1]; listed as Pattern C,pattern B
same,behaviour upon drying at 50° C.,[1]; listed as solid form C,stable
same,water gained during the dynamic vapor sorption measurements,[2],1.44%
same,hygroscopicity (words),[2]; DVS,not as hygroscopic as pralsetinib free base in solid form A
same,DVS Water Mass Change (wt. %),[2]; Table 3E,1.29-1.44 wt. %
same,XRPD / form stability after DVS humidity cycling,[2],the same
same,XRPD / form stability after DVS humidity cycling,[2]; listed as Solid form C,remained stable
same,reversible mass change by DVS,[2]; between 2-95% relative humidity,about 1.4%
same,total mass change observed by DVS,[2]; humidity range not given,1.4 wt. %
same,XRPD results of direct antisolvent experiments,[3]; [10],phase sep.
same,XRPD results of direct antisolvent experiments,[3]; [11],C + some B (wet)
same,XRPD results of direct antisolvent experiments,"[3]; solvent THF, antisolvent water",oiling
same,XRPD results of reverse antisolvent experiments,[3]; [10],phase sep.
same,XRPD results of reverse antisolvent experiments,[3]; [11],C (wet)
same,XRPD results of reverse antisolvent experiments,"[3]; solvent MeOH, antisolvent water",C (wet)
same,XRPD results of reverse antisolvent experiments,"[3]; solvent THF, antisolvent heptane",am. (wet)
same,XRPD results of reverse antisolvent experiments,"[3]; solvent THF, antisolvent water",C (wet)
same,solid form after heating to 150° C.,[4],converted to Pattern B (anhydrous); also recorded: converted to solid form B
same,XRPD Pattern,"[5]; DCM, solution 37 mg/mL solvent",amorphous*
same,XRPD Pattern,"[5]; chloroform, solution 70 mg/mL solvent",amorphous*
same,stability on exposure to 75% relative humidity at 40° C.,[6],remained stable
same,stability on exposure to 75% relative humidity at 40° C.,[6]; listed as Pattern C,remained unchanged
same,competitive slurry in acetone and isopropanol,[7],converted to solid form A
same,Competitive slurry MeOH: water (1:1 vol) at 23 and 50° C.,[7]; listed as Pattern C,C stable
same,"Competitive slurry isopropanol, MeOH:MtBE",[7]; listed as Pattern C,C converts to A
same,XRPD Pattern,"[8]; EtOH, 22-23° C., dried solids",A (dry)
same,XRPD Pattern,"[8]; EtOH, 22-23° C., wet solids",A (wet)
same,XRPD Pattern,"[8]; IPAc, 50° C.",A + C
same,XRPD Pattern,"[8]; chloroform, 22-23° C., dried solids",H (dry)
same,XRPD Pattern,"[8]; chloroform, 22-23° C., wet solids",H (wet)
same,XRPD Pattern (fast cool),"[9]; cooling crystallization, 1,4-dioxane",no solids (−20° C.)
same,XRPD Pattern (slow cool),"[9]; cooling crystallization, 1,4-dioxane, wet solid before drying",Q (wet)
same,XRPD Pattern (fast cool),"[9]; cooling crystallization, 1-propanol",no solids (−20° C.)
same,XRPD Pattern (slow cool),"[9]; cooling crystallization, 1-propanol, wet solid before drying",A (wet)
same,XRPD Pattern (fast cool),[9]; [12],no solids (−20° C.)
same,XRPD Pattern (slow cool),[9]; [12],no solids (−20° C.)
same,XRPD Pattern (fast cool),[9]; [13],no solids (−20° C.)
same,XRPD Pattern (slow cool),[9]; [13],no solids (−20° C.)
same,XRPD Pattern (fast cool),[9]; [14],no solids (−20° C.)
same,XRPD Pattern (slow cool),[9]; [14],no solids (−20° C.)
same,XRPD Pattern (fast cool),[9]; [15],no solids (−20° C.)
same,XRPD Pattern (slow cool),[9]; [15],no solids (−20° C.)
same,XRPD Pattern (fast cool),[9]; [16],no solids (−20° C.)
same,XRPD Pattern (slow cool),[9]; [16],no solids (−20° C.)
same,XRPD Pattern (fast cool),"[9]; cooling crystallization, EtOAc",no solids (−20° C.)
same,XRPD Pattern (slow cool),"[9]; cooling crystallization, EtOAc",very few solids
same,XRPD Pattern (fast cool),"[9]; cooling crystallization, EtOH",no solids (−20° C.)
same,XRPD Pattern (slow cool),"[9]; cooling crystallization, EtOH",no solids (−20° C.)
same,XRPD Pattern (fast cool),"[9]; cooling crystallization, IPA",no solids (−20° C.)
same,XRPD Pattern (slow cool),"[9]; cooling crystallization, IPA",A (wet)
same,XRPD Pattern (fast cool),"[9]; cooling crystallization, IPAc",no solids (−20° C.)
same,XRPD Pattern (slow cool),"[9]; cooling crystallization, IPAc",no solids (−20° C.)
same,XRPD Pattern (fast cool),[9]; [17],D (wet)
same,XRPD Pattern (slow cool),[9]; [17],D (wet)
same,XRPD Pattern (slow cool),"[9]; cooling crystallization, MeOH",no solids (−20° C.)
same,XRPD Pattern (fast cool),"[9]; cooling crystallization, THF",N (wet)
same,XRPD Pattern (slow cool),"[9]; cooling crystallization, THF, wet solid before drying",O + I (wet)
same,XRPD Pattern (fast cool),"[9]; cooling crystallization, acetone",no solids (−20° C.)
